{"source": "ChEMBL document CHEMBL4613308", "about": "“Screen of Unfocused Libraries Identified Compounds with Direct or Synergistic Antibacterial Activity” (ACS Med Chem Lett, 2020)", "key": {"Klebsiella pneumoniae [1]": {"tested_on": "Klebsiella pneumoniae", "assay": "Antibacterial activity against Klebsiella pneumoniae ATCC 13833 assessed as bacterial growth inhibition by agar diffusion assay", "type": "functional"}, "Escherichia coli [2]": {"tested_on": "Escherichia coli", "assay": "Antibacterial activity against Escherichia coli CCUG assessed as bacterial growth inhibition by agar diffusion assay", "type": "functional"}, "Klebsiella pneumoniae [3]": {"tested_on": "Klebsiella pneumoniae", "assay": "Synergistic antibacterial activity against colistin-resistant Klebsiella pneumoniae SI-004Bo clinical isolate in presence of 2 ug/ml colistin by microdilution broth method (reference value: 64 ug/ml)", "type": "functional"}, "Klebsiella pneumoniae [4]": {"tested_on": "Klebsiella pneumoniae", "assay": "Synergistic antibacterial activity against colistin-resistant Klebsiella pneumoniae SI-081R clinical isolate in presence of 2 ug/ml colistin by microdilution broth method (reference value: 256 ug/ml)", "type": "functional"}, "Pseudomonas aeruginosa [5]": {"tested_on": "Pseudomonas aeruginosa", "assay": "Antibacterial activity against Pseudomonas aeruginosa ATCC 27853 assessed as bacterial growth inhibition by agar diffusion assay", "type": "functional"}, "Acinetobacter baumannii [6]": {"tested_on": "Acinetobacter baumannii", "assay": "Synergistic antibacterial activity against multidrug-resistant Acinetobacter baumannii N50 assessed as fractional inhibitory concentration index in presence of colistin by checkerboard assay", "type": "functional"}, "Escherichia coli [7]": {"tested_on": "Escherichia coli", "assay": "Synergistic antibacterial activity against Escherichia coli CCUG in presence of 0.5 times MIC of colistin by microdilution broth method", "type": "functional"}, "Acinetobacter baumannii [8]": {"tested_on": "Acinetobacter baumannii", "assay": "Synergistic antibacterial activity against multidrug-resistant Acinetobacter baumannii N50 in presence of 2 ug/ml colistin by microdilution broth method", "type": "functional"}, "Escherichia coli [9]": {"tested_on": "Escherichia coli", "assay": "Potentiation of colistin-induced antibacterial activity against Escherichia coli CCUG assessed as fold reduction in colistin MIC in by microdilution broth method relative to colistin MIC", "type": "functional"}, "Klebsiella pneumoniae [10]": {"tested_on": "Klebsiella pneumoniae", "assay": "Synergistic antibacterial activity against Klebsiella pneumoniae ATCC 13833 in presence of 0.5 times MIC of colistin by microdilution broth method", "type": "functional"}, "Klebsiella pneumoniae [11]": {"tested_on": "Klebsiella pneumoniae", "assay": "Potentiation of colistin-induced antibacterial activity against Klebsiella pneumoniae ATCC 13833 assessed as fold reduction in colistin MIC by microdilution broth method relative to colistin MIC", "type": "functional"}, "Acinetobacter baumannii [12]": {"tested_on": "Acinetobacter baumannii", "assay": "Synergistic antibacterial activity against Acinetobacter baumannii ATCC 17978 in presence of 0.5 times MIC of colistin by microdilution broth method", "type": "functional"}, "Pseudomonas aeruginosa [13]": {"tested_on": "Pseudomonas aeruginosa", "assay": "Synergistic antibacterial activity against Pseudomonas aeruginosa ATCC 27853 in presence of 0.5 times MIC of colistin by microdilution broth method", "type": "functional"}, "Acinetobacter baumannii [14]": {"tested_on": "Acinetobacter baumannii", "assay": "Antibacterial activity against Acinetobacter baumannii ATCC 17978 assessed as bacterial growth inhibition by agar diffusion assay", "type": "functional"}, "Acinetobacter baumannii [15]": {"tested_on": "Acinetobacter baumannii", "assay": "Potentiation of colistin-induced antibacterial activity against Acinetobacter baumannii ATCC 17978 assessed as fold reduction in colistin MIC by microdilution broth method relative to colistin MIC", "type": "functional"}, "Pseudomonas aeruginosa [16]": {"tested_on": "Pseudomonas aeruginosa", "assay": "Potentiation of colistin-induced antibacterial activity against Pseudomonas aeruginosa ATCC 27853 assessed as fold reduction in colistin MIC by microdilution broth method relative to colistin MIC", "type": "functional"}, "HeLa": {"tested_on": "HeLa", "assay": "Cytotoxicity against human HeLa cells assessed as reduction in cell viability assay by CellTox-Green assay", "type": "cell-based"}, "Pseudomonas aeruginosa [17]": {"tested_on": "Pseudomonas aeruginosa", "assay": "Synergistic antibacterial activity against Pseudomonas aeruginosa ATCC 27853 assessed as fractional inhibitory concentration index in presence of colistin by Checkerboard assay", "type": "functional"}, "Acinetobacter baumannii [18]": {"tested_on": "Acinetobacter baumannii", "assay": "Synergistic antibacterial activity against Acinetobacter baumannii ATCC 17978 assessed as fractional inhibitory concentration index in presence of colistin by Checkerboard assay", "type": "functional"}}, "data": [{"compound": "CCCCCc1cc(O)cc(OCCCCCCCCCCC(=O)NCCO)c1", "values": [{"measurement": "MIC", "setting": "Klebsiella pneumoniae [1]", "result": "> 512", "unit": "µg/mL"}, {"measurement": "MIC", "setting": "Escherichia coli [2]", "result": "> 512", "unit": "µg/mL"}, {"measurement": "MIC", "setting": "Klebsiella pneumoniae [3]", "result": "> 64", "unit": "µg/mL"}, {"measurement": "MIC", "setting": "Klebsiella pneumoniae [4]", "result": "> 64", "unit": "µg/mL"}, {"measurement": "MIC", "setting": "Pseudomonas aeruginosa [5]", "result": "> 512", "unit": "µg/mL"}, {"measurement": "fractional inhibitory concentration index (FICI)", "setting": "Acinetobacter baumannii [6]", "result": 0.062}, {"measurement": "MIC", "setting": "Escherichia coli [7]", "result": 8, "unit": "µg/mL"}, {"measurement": "MIC", "setting": "Acinetobacter baumannii [8]", "result": 2, "unit": "µg/mL"}, {"measurement": "log2FC", "setting": "Escherichia coli [9]", "result": 6}, {"measurement": "MIC", "setting": "Klebsiella pneumoniae [10]", "result": 4, "unit": "µg/mL"}, {"measurement": "log2FC", "setting": "Klebsiella pneumoniae [11]", "result": 7}, {"measurement": "MIC", "setting": "Acinetobacter baumannii [12]", "result": 2, "unit": "µg/mL"}, {"measurement": "MIC", "setting": "Pseudomonas aeruginosa [13]", "result": 2, "unit": "µg/mL"}, {"measurement": "MIC", "setting": "Acinetobacter baumannii [14]", "result": "> 512", "unit": "µg/mL"}, {"measurement": "log2FC", "setting": "Acinetobacter baumannii [15]", "result": 8}, {"measurement": "log2FC", "setting": "Pseudomonas aeruginosa [16]", "result": 8}, {"measurement": "IC50", "setting": "HeLa", "result": 25, "unit": "µg/mL"}, {"measurement": "fractional inhibitory concentration index (FICI)", "setting": "Pseudomonas aeruginosa [17]", "result": 0.41}, {"measurement": "fractional inhibitory concentration index (FICI)", "setting": "Acinetobacter baumannii [18]", "result": 0.29}]}]}
